Format in all cases: biochemical
The target in one assay is T1, Human plasma thrombin (Homo sapiens, UniProt P00734).
T1 construct: from tissue; host or cells: human plasma
In words: Human plasma thrombin inhibition, H-D-Phe-Pip-Arg-pNA substrate. Conditions: the 5th table, unit inferred. Here is the method: (§1) Protease inhibition was assayed according to published procedures with minor modifications using various proteases and specific chromogenic peptide p-nitroanilide substrates. Assays were performed in Costar ultra-low cluster 96-well microtiter plate (Costar Corning Corp., Cambridge Mass.). Each protease was incubated with various concentrations of the test compound for 15 min. at 37° C. or as otherwise indicated, in specific assay buffer, and the residual activity was then measured by addition of the substrate. p-Nitroaniline produced by the proteolysis was determined by measuring the change in absorbance at 405 nm on a SpectraMAX 340 plate reader (Molecular devices, Sunnyvale, Calif.).
(§2) 1. The inhibition constant, Ki is calculated from individual data points using the equation for a tight-binding inhibitor (See Beith, “Proteinase Inhibitors-Proceedings of 2nd Int. Res. Conference”, Fritz, et al. eds., New York, p.4463-4469 (1974)):
(§3) The Ki values are obtained by correcting Ki ′ values for the effect of substrate concentration according to: [formula]
(§4) 2. Other inhibition data (Ki>>[E]o), the Ki is calculated from using the equations for a competitive inhibitor: [formula]
Human plasma thrombin activity was determined by using H-D-Phe-Pip-Arg-pNA in 50 mM Tris-HCl, pH 8.3, 100 mM NaCl, 1% BSA (See Lottenberg, et al., Meth. Enzymol. 80, 341-361 (1981)).
(§5) The inhibition constant (Ki) of the test compounds against each proteolytic enzyme was determined according to Zitnik et al., Biochem. Biophys. Res. Commun. 232, 687-697 (1997)).

Assay [1] has as its target T2, Bovine pancreatic Trypsin (TPCK-treated) (Bos taurus, UniProt P00760).
T2 construct: from tissue; host or cells: bovine pancreas
T2 sequence (P00760 24-246): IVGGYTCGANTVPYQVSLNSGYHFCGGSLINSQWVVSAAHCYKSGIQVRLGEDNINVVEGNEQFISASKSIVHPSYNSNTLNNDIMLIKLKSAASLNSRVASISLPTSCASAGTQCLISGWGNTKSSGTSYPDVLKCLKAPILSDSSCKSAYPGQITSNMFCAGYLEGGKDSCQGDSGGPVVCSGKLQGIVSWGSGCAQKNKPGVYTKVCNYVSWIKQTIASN
The assay can be described thus: Bovine pancreatic trypsin inhibition, N-α-Benzoyl-L-Arg-pNA substrate. Conditions: the 5th table, unit inferred. The procedure: as §1, §2, §3, §4
C. Bovine Pancreatic Trypsin
Bovine pancreatic Trypsin (TPCK-treated) activity was determined by using N-α-Benzoyl-L-Arg-pNA in 50 mM Tris-HCl, pH 8.2, 20 mM CaCl2 (See Somorin, et al., J. Biochem. 85, 157-162 (1979)).
as §5

The next assay addresses T3, Human plasma factor Xa (Homo sapiens, UniProt P00742).
T3 construct: from tissue; host or cells: human plasma
In words: Human plasma factor Xa inhibition, N-Benzoyl-Ile-Glu-Gly-Arg-pNA substrate. As to conditions: 50 mM Tris-HCl, pH 7.8, 200 mM NaCl, 0.05% BSA. The procedure:
as §1
(§6) 1. The inhibition constant, Ki is calculated from individual data points using the equation for a tight-binding inhibitor (See Beith, “Proteinase Inhibitors-Proceedings of 2nd Int. Res. Conference”, Fritz, et al. eds., New York, p.4463-4469 (1974)): […]
(§7) 2. Other inhibition data (Ki>>[E]o), the Ki is calculated from using the equations for a competitive inhibitor: [formula] […]
Human plasma factor Xa activity was determined by using N-Benzoyl-Ile-Glu-Gly-Arg-pNA in 50 mM Tris-HCl, pH 7.8, 200 mM NaCl, 0.05% BSA (See Lottenberg, et al. Meth. Enzymol. 80, 341-361 (1981)).
(§8) The inhibition constant (Ki) of the test compounds against each proteolytic enzyme was determined according to Zitnik et al., Biochem. Biophys. […]

Assay [2] addresses T4, Bovine Pancreatic Chymotrypsin (Bos taurus, UniProt P00766).
T4 construct: from tissue; host or cells: bovine pancreas
In words: Bovine pancreatic chymotrypsin inhibition, N-Suc-Ala-Ala-Pro-Phe-pNA substrate. As to conditions: 100 mM Tris-HCl, pH 7.8, 10 mM CaCl2. Here is the method:
as §1, §6, §7
Bovine Pancreatic Chymotrypsin activity was determined by using N-Suc-Ala-Ala-Pro-Phe-pNA in 100 mM Tris-HCl, pH 7.8, 10 mM CaCl2 (See Delmar, et al., J. Biochem. 85, 157-162 (1979)).
as §8

In a further assay the target is T5, Human plasma plasmin (Homo sapiens, UniProt P00747).
T5 construct: from tissue; host or cells: human plasma
T5 sequence (P00747 581-810 limits assumed): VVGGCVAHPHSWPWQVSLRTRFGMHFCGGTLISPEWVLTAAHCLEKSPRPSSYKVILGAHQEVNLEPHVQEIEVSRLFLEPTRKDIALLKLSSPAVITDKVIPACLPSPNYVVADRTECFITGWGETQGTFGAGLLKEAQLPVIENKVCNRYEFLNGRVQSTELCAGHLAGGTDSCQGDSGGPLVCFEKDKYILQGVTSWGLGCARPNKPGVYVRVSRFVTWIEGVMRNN
T5 sequence (P00747 97-580 partner limits assumed): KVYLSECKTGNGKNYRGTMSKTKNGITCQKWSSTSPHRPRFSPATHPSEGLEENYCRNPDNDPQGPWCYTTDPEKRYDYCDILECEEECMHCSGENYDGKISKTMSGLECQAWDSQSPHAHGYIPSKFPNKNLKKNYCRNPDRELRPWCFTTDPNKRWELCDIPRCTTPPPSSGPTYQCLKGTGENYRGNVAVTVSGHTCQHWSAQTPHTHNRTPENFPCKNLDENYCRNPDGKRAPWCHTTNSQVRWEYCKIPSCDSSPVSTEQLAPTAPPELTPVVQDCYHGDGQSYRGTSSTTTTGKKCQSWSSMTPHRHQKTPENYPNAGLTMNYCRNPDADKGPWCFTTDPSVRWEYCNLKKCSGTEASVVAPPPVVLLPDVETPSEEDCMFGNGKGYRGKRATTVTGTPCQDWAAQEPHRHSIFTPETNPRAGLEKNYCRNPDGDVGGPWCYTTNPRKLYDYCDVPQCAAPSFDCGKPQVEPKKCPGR
In words: Human plasma plasmin inhibition, Tosyl-Gly-Pro-Lys-pNA substrate. Conditions: 100 mM Tris-HCl, pH 7.4, 100 mM NaCl, 0.05% Triton X-100. The procedure:
as §1, §6, §4
Human plasma plasmin activity was determined by using Tosyl-Gly-Pro-Lys-pNA in 100 mM Tris-HCl, pH 7.4, 100 mM NaCl, 0.05% Triton X-100 (See Lottenberg, et al., Meth. Enzymol. 80, 341-361 (1981)).
as §8

The target of assay [3] is T6, Human Neutrophil elastase (Homo sapiens, UniProt P08246).
T6 construct: from tissue; host or cells: human neutrophils
T6 sequence (P08246 30-267): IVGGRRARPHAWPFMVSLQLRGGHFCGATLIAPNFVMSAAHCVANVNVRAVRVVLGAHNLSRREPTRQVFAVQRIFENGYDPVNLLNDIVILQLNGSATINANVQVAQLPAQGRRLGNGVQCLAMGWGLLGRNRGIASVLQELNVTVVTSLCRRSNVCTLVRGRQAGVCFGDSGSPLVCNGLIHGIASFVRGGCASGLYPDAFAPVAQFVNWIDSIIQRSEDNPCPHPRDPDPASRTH
The assay can be described thus: Human neutrophil elastase inhibition, pyroGlu-Pro-Val-pNA substrate. Conditions: 100 mM Tris-HCl, pH 8.3, 0.96 M NaCl, 1% BSA. Here is the method: as §1, §6, §7
Human Neutrophil elastase activity was determined by using pyroGlu-Pro-Val-pNA in 100 mM Tris-HCl, pH 8.3, 0.96 M NaCl, 1% BSA (See Kramps, et al. Scand. J. Clin. Lab. Invest. 43, 427-432 (1983)).
as §8

In the next assay the target is T7, Human plasma kallikrein (Homo sapiens, UniProt P03952).
T7 construct: from tissue; host or cells: human plasma
T7 sequence (P03952 391-638 limits assumed): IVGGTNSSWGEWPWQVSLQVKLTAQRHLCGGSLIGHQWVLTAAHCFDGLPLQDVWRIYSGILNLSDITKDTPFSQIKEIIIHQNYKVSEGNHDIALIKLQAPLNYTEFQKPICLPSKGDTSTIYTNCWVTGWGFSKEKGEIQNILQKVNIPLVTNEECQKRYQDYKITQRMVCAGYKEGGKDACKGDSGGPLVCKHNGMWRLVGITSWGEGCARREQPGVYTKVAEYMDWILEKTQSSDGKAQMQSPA
T7 sequence (P03952 20-390 partner limits assumed): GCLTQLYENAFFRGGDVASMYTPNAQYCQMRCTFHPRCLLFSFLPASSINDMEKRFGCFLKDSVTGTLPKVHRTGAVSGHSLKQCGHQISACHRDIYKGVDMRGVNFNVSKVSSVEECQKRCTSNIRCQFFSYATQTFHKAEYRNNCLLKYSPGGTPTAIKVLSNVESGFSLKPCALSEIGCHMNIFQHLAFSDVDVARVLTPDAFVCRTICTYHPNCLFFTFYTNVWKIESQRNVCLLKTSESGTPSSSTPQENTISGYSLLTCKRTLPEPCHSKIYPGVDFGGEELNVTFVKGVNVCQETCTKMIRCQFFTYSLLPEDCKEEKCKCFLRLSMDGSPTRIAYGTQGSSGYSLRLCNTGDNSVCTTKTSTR
The assay can be described thus: Human plasma kallikrein inhibition, H-D-Prolyl-Phe-Arg-pNA substrate. Conditions: 50 mM Tris-HCl, pH 7.8, 200 mM NaCl, 0.05% BSA. The procedure:
as §1, §6, §7
(§9) Human plasma and r-tissue kallikrein activity were determined in 50 mM Tris-HCl1, pH 7.8, 200 mM NaCl, 0.05% BSA by using H-D-Prolyl-Phe-Arg-pNA and DL-Val-Leu-Arg-pNA, respectively (See Lottenberg, et al., Meth. Enzymol. 80, 341-361 (1981)). […]

For assay [4], the target named is Human r-tissue kallikrein (Homo sapiens, UniProt P06870). In words: Human r-tissue kallikrein inhibition, DL-Val-Leu-Arg-pNA substrate. Conditions: 50 mM Tris-HCl, pH 7.8, 200 mM NaCl, 0.05% BSA. The procedure: as §1, §6, §7, §9
Human r-tissue kallikrein, sequence (P06870 25-262): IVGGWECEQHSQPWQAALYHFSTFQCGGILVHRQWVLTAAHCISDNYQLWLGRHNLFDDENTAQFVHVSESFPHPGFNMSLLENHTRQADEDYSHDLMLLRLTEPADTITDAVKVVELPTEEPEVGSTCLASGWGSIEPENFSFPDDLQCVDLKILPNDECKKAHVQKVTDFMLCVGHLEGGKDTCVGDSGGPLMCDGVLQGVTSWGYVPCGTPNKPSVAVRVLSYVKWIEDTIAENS

This note sets out measurements from US6362216B1, “Compounds which inhibit tryptase activity” (Array Biopharma Inc., priority 1998, dated 2002).

T3 sequence (P00742 235-488 limits assumed): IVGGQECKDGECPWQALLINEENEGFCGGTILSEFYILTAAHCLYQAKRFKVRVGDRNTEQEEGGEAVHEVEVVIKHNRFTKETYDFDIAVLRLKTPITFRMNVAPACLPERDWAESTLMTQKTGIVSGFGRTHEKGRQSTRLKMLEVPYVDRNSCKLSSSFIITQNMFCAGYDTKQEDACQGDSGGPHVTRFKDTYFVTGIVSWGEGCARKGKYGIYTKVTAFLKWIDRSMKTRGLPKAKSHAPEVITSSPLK
T3 sequence (P00742 41-179 partner limits assumed): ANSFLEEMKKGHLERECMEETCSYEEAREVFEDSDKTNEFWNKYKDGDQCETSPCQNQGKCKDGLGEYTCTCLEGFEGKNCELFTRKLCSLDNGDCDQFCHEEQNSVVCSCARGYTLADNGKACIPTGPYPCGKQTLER

A word on the Ki: it is a dissociation constant, usually derived from enzyme kinetics or from competition with a known ligand. A higher Ki goes with lower affinity. For `Cc1cc2cc(CNC(=O)Cc3cc4cc(C(=N)N)ccc4s3)ccc2[nH]1` [drawing 17 Benzthiophene 5-carboxamidine n=1], the inhibitory constant (Ki) at Human plasma thrombin was 25.8 µM; in assay [1] it was 2.4 µM; at Human plasma factor Xa, 17.7 µM; in assay [2] it was more than 100 µM; on Human plasma plasmin it was 2.7 µM; in assay [3], more than 100 µM. The Ki at Human plasma kallikrein was 1.6 µM; in assay [4], more than 100 µM.
